Here are results for 27 compounds from ChEMBL document CHEMBL4673222, “Discovery of a Bioactive Inhibitor with a New Scaffold for Cystathionine γ-Lyase” (J Med Chem, 2019).

pIC50, pKd, pKi: −log10 of the molar value. Calls of active or inactive are those of the source. The rule behind the calls is not given here.

Experiment [1] addresses T1, Cystathionine gamma-lyase (Homo sapiens, UniProt P32929). Kind of experiment: Inhibition of human CSE using L-Cys as the substrate by tandem well based HTS assay.
Experiment [2] is described as follows: Binding affinity to H2S assessed as absorbing of released H2S up to 100 uM in presence of NaHS as H2S donor. As to conditions: dose microM <=100.
In experiment [3] the target is T1, Cystathionine gamma-lyase. Nature of the experiment: Inhibition of human CSE using H-Cys as the substrate by LC/MS/MS-based assay.
The target of experiment [4] is T1, Cystathionine gamma-lyase. Kind of experiment: Inhibition of human CSE using L-Cys as the substrate in presence of 0.01% Triton X-100 by tandem well based HTS assay.
Experiment [5] has as its target T1, Cystathionine gamma-lyase. Nature of the experiment: Competitive inhibition of human CSE using varying levels of L-Cys as substrate and fixed PLP levels.
The target of experiment [6] is T1, Cystathionine gamma-lyase. Kind of experiment: Inhibition of human CSE using L-Cys as the substrate in presence of 0.025% Triton X-100 by tandem well based HTS assay.
For experiment [7], the target named is T1, Cystathionine gamma-lyase. Kind of experiment: Non-covalent reversible inhibition of human CSE.
Experiment [8] is described as follows: Binding affinity to H2S assessed as absorbing of released H2S at 200 uM in presence of NaHS as H2S donor.
Experiment [9] addresses T1, Cystathionine gamma-lyase. Kind of experiment: Binding affinity to human CSE by ITC analysis.
The species entered for experiment [10] is Homo sapiens. Kind of experiment: Selectivity index, ratio of IC50 for human CBS to IC50 for human CSE.
In experiment [11] the target is T1, Cystathionine gamma-lyase. Nature of the experiment: Inhibition of human CSE using H-Cys as the substrate by tandem well based HTS assay.
Experiment [12] is filed under the species Homo sapiens. Nature of the experiment: Selectivity index, ratio of IC50 for human CBS to IC50 for human DDC.
Experiment [13] addresses Cystathionine gamma-lyase (Mus musculus, UniProt Q8VCN5). Nature of the experiment: Inhibition of CSE in mouse RAW264.7 cells assessed as reduction in endogenous H2S level by AzMC probe based fluorescence assay. The format is cell-based.
Experiment [14] deals with Cystathionine gamma-lyase (Mus musculus) (UniProt Q8VCN5). Kind of experiment: Inhibition of CSE in mouse RAW264.7 cells assessed as reduction in amount of released H2S level at >= 200 uM by lead acetate method. As to conditions: dose microM >=200. It counts as cell-based.
Experiment [15] concerns the target T1, Cystathionine gamma-lyase. Nature of the experiment: Inhibition of human CSE expressed in mouse RAW264.7 cells assessed as reduction in amount of released H2S level at >=200 uM by lead acetate method. The format is cell-based. As to conditions: dose microM >=200.

T1 sequence (P32929 whole entry): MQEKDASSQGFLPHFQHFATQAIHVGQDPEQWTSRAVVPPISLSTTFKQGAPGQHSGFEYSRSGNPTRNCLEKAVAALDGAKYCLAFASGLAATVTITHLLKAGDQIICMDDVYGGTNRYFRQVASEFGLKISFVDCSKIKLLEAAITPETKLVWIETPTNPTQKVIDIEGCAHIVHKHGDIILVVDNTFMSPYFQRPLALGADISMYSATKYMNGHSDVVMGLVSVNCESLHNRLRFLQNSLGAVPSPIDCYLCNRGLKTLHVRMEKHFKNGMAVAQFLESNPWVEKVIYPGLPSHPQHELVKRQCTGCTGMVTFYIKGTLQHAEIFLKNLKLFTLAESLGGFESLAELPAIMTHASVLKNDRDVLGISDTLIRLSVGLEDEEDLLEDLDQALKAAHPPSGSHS
Chain of Cystathionine gamma-lyase (Mus musculus, UniProt Q8VCN5) (Q8VCN5 whole entry): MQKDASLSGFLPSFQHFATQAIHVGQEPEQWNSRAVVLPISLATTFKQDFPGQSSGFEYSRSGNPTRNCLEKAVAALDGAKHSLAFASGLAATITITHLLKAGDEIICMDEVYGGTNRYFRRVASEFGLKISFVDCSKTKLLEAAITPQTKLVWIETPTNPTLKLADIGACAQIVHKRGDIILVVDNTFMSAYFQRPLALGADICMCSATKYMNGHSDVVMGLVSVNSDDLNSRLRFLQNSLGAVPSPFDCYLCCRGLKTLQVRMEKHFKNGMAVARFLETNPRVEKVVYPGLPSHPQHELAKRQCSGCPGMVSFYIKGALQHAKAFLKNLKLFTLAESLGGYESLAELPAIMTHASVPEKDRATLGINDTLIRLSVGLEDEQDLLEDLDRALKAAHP
Chain of Cystathionine gamma-lyase (Mus musculus) (Q8VCN5 whole entry): as above

One may read the pIC50 as the negative decadic logarithm of the IC50, by convention in mol/L. Regarding `NC1=C(Br)C(=O)c2ncccc2C1=O`, the pIC50 in [1] is > 4.30.
For `O=C1c2ccccc2C(=O)c2sc(Nc3ccc(Cl)cc3)nc21`, the pIC50 in [1] was > 4.30.
Still for that read-out and setting: the value for `O=C1C(Cl)=C(N2CCN(C3=C(Cl)C(=O)c4ccccc4C3=O)CC2)C(=O)c2ccccc21` was > 4.30.
On to `NC1=CC(=O)c2cccnc2C1=O`, for which, in experiment [1], the pIC50 is > 4.30.
As to `Nc1ccc(Cc2ccc(NC3C(=O)c4ccccc4C(=O)C3Cl)cc2)cc1` (stereo not drawn), in experiment [1], the pIC50 was > 4.30.
A word on the pKi: it is the negative decadic logarithm of the Ki, by convention in mol/L. Low values mean a high Ki, high ones a low Ki. One may read the pKd as the negative decadic logarithm of the Kd, by convention in mol/L. Low values mean a large Kd, high ones a small Kd. As to `COc1cccc2c1C(=O)C1=C(C[C@H](CC(=O)O)O[C@H]1C)C2=O`, the outcome in [2] was inactive. Further, the negative logarithm of the IC50 (pIC50) in experiment [3] was 4.87; in experiment [1], 5.21; in experiment [7], 5.21; in experiment [11], 5.13. Also, the inhibition result in [4] and in experiment [6] was “Active” each time. The pKi in [5] is 5.31. In addition, in experiment [8], the Activity is 20%. Besides, the pKd in experiment [9] was 5.42. Moreover, the Ratio IC50 in the experiment listed under Homo sapiens [10] is 161; in the experiment listed under Homo sapiens [12] it was 32.
Regarding `O=[N+]([O-])c1ccc(Sc2cccc[n+]2[O-])c2nonc12`, the pIC50 in experiment [1] was > 4.30.
Consider `Nc1ccc(O)c(C(=O)O)c1` [MESALAMINE], for which the pIC50 in experiment [1] was < 3.70.
As for `O=C(O)c1ccccc1O` [SALICYLIC ACID], the pIC50 in experiment [1] was < 3.70.
Turning to `Cc1nc2c(N)nc(N)nc2nc1O`, in experiment [1], the pIC50 was > 4.30.
As for `O=C1C=C/C(=N/C2C(=O)c3ccccc3C(=O)C2Cl)C=C1Cl` (stereo not drawn), the negative-log IC50 (pIC50) in experiment [1] was > 4.30.
Take `O=CN/C=C\c1cc(O)ccc1O`: the pIC50 in [1] is > 4.30.
As to `O=C1C(Cl)=C(NCCN2CCNCC2)C(=O)c2ccccc21`, in experiment [1], the pIC50 is > 4.30.
`CC1=C/C(=C(\c2cc(C)c(O)c(C(=O)O)c2)c2c(Cl)ccc(S(=O)(=O)O)c2Cl)C=C(C(=O)O)C1=O` showed a pIC50 in [1] of 3.84.
Same read-out and setting: to `O=C(O)c1cc(/N=N/c2ccc(O)c(C(=O)O)c2)ccc1O` [OLSALAZINE] belongs < 3.70; to `CC1OC2CC(=O)OC2C2=C1C(=O)c1c(O)cccc1C2=O` (stereo not drawn), > 4.30; to `NC1=C(Cl)C(=O)c2ncccc2C1=O`, > 4.30.
Consider `CN1CCN(C2=C(Cl)C(=O)c3ccccc3C2=O)CC1`, for which the pIC50 in experiment [1] is > 4.30.
For the compound `C#CCC(N)C(=O)O` (racemic), the pIC50 in experiment [13] is 3.43. In addition, the inhibition result in experiment [14] and in [15] was “Active” throughout.
`CC1=C/C(=C(\c2cc(C)c(O)c(C(=O)O)c2)c2c(Cl)cccc2Cl)C=C(C(=O)O)C1=O`: in experiment [1], the pIC50 is 3.81.
In the case of `O=[N+]([O-])c1ccc(O)c2ncccc12` [NITROXOLINE], in experiment [2], the result was inactive. The pIC50 is 5.22 in experiment [3], 5.10 in experiment [1] and 4.97 in [11]. Besides, the inhibition entry in [4] and in experiment [6] was “Active” in each case. Moreover, the Activity in experiment [8] was 35%. Further, the Ratio IC50 was 62 in the experiment filed under Homo sapiens [10] and 12 in the experiment filed under Homo sapiens [12].
For `CCNC1=CC(=O)c2ncccc2C1=O`, the pIC50 in [1] is > 4.30.
As to `O=C(O)C1=C/C(=C(\c2ccccc2)c2cc(C(=O)O)c(O)c3ccccc23)c2ccccc2C1=O`, the pIC50 in experiment [1] was < 3.70.
For the compound `O=C1C(Cl)=C(NCCCCCCNC2=C(Cl)C(=O)c3ccccc3C2=O)C(=O)c2ccccc21`, the negative logarithm of the IC50 (pIC50) in [1] was > 4.30.
`CC1=CC(=C(c2cc(C)c(O)c(C(=O)O)c2)c2cc(C)c(O)c(C(=O)O)c2)C=C(C(=O)O)C1=O` gave a pIC50 in experiment [1] of 4.22.
In the case of `COC(=O)C1=CC(=C(c2ccc(O)c(C(=O)OC)c2)c2ccc(O)c(C(=O)OC)c2)C=CC1=O`, the pIC50 in experiment [1] was < 3.70.
As to `Cc1ccc([S+]([O-])c2ccc([N+](=O)[O-])c3nonc23)cc1` (stereo not drawn), the pIC50 in experiment [1] is > 4.30.
